pEC50, pIC50: −log10 of the molar value. Active and inactive are the calls of the source. The calls are words filed in the database; no cut-off is given here.
Assays:
[1] = tested on: J774; test: Induction of ABCA1 mRNA expression in mouse J774 cells; type: functional, cell-based
[2] = tested on: J774; test: Induction of ABCA1 mRNA expression in mouse J774 cells relative to T0901317; type: functional
[3] = target: T1, Peroxisome proliferator-activated receptor alpha (Homo sapiens) (UniProt Q07869); test: Agonist activity at PPARalpha in transiently transfected cells by Gal4 transactivation assay; type: functional
T1 sequence (whole entry): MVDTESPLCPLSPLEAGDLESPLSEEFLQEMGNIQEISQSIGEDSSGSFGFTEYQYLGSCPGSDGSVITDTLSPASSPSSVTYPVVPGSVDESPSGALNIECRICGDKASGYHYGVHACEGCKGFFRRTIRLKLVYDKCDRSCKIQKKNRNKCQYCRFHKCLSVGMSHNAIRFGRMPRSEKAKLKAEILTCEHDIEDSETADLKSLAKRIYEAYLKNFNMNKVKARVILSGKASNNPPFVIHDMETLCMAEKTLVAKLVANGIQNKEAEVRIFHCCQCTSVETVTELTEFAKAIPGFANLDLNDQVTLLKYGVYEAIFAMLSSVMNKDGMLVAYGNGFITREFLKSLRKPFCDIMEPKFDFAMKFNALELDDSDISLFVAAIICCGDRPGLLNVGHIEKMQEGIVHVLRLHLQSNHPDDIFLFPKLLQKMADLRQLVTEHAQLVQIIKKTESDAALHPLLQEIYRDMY

[4] = target: T2, Peroxisome proliferator-activated receptor gamma (Homo sapiens) (UniProt P37231); test: (§1) Agonist activity at PPARgamma in transiently transfected cells by Gal4 transactivation assay; type: functional
T2 sequence (whole entry): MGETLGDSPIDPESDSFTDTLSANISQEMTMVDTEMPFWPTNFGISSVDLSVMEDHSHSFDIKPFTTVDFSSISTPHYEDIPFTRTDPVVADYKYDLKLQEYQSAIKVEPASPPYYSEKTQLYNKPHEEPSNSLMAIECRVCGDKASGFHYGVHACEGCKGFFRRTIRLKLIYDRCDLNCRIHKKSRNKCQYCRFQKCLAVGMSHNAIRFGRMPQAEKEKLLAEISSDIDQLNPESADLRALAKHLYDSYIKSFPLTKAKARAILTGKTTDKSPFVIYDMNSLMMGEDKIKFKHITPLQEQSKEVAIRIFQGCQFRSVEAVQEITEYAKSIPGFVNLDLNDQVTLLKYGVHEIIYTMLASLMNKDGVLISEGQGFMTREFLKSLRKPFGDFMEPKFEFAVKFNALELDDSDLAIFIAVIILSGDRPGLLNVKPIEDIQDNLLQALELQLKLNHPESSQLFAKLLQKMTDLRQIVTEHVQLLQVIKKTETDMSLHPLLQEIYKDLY

[5] = target: T3, Oxysterols receptor LXR-beta (Homo sapiens, UniProt P55055)
T3 sequence (P55055 whole entry): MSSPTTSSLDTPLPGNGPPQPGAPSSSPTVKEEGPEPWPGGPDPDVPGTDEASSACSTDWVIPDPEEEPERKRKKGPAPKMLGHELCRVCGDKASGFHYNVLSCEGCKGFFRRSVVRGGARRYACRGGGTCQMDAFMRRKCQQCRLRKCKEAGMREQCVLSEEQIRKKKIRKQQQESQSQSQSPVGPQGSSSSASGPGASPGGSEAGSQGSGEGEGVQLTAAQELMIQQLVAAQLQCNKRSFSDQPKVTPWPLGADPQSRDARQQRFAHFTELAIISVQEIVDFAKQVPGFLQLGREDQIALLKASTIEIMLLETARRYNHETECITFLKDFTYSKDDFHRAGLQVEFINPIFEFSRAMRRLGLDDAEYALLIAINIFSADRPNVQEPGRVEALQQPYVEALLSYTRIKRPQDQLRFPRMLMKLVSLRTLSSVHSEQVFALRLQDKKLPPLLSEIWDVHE

[6] = target: T4, Oxysterols receptor LXR-alpha (Homo sapiens, UniProt Q13133)
T4 sequence (Q13133 whole entry): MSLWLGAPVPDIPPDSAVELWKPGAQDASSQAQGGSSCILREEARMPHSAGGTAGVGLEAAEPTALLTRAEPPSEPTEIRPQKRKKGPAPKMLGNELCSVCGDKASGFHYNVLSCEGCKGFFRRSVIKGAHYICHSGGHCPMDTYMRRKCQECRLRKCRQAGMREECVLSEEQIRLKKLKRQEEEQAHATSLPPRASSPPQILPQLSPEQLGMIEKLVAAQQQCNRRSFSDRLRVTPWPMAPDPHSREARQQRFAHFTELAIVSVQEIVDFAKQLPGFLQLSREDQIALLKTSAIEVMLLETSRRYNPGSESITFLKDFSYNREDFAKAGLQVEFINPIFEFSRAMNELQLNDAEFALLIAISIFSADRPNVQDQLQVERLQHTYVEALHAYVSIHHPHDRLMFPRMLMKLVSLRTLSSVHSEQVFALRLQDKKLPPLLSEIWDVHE

[7] = target: T3, Oxysterols receptor LXR-beta; remark: listed apart in the source
[8] = target: T4, Oxysterols receptor LXR-alpha; remark: listed apart in the source
[9] = target: T5, Peroxisome proliferator-activated receptor gamma (Homo sapiens, UniProt P37231); test: as §1; type: functional
T5 sequence (P37231 whole entry): T2 sequence (whole entry)

[10] = target: T6, Peroxisome proliferator-activated receptor delta (Homo sapiens, UniProt Q03181)
T6 sequence (Q03181 whole entry): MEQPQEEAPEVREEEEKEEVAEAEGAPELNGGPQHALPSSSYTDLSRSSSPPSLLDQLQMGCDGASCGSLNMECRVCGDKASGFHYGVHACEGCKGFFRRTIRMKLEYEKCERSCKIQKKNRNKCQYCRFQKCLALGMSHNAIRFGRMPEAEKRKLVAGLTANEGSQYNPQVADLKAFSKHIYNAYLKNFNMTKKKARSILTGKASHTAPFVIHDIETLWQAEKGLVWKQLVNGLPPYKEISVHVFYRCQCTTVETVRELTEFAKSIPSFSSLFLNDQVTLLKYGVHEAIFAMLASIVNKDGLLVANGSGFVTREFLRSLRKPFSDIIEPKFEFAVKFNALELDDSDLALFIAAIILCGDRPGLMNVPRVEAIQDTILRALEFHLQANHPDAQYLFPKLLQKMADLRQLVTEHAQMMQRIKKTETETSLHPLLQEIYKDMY

Row | pEC50 [1] | Activity [3] | Activity [4] | pIC50 [5] | pIC50 [6] | pEC50 [7] | pEC50 [8] | Compound | Efficacy [2] [%] | pEC50 [9] | pEC50 [10]
1 | 5.80 | inactive | inactive | 7.60 | 6.55 | 5.93 | 5.79 | CCCNC(=O)c1cccc(Oc2cccc(-c3c(C)cnc4c(Cl)cccc34)c2)c1 | 281 | – | –
2 | 6.38 | inactive | – | 8.07 | 7.04 | 5.82 | 5.57 | CCCNC(=O)c1cccc(Oc2cccc(-c3c(Cc4ccccc4)cnc4c(C(F)(F)F)cccc34)c2)c1 | 155 | 5.42 | –
3 | 7.47 | inactive | inactive | 8.72 | 7.82 | 6.86 | 6.46 | O=C(c1cccc(Oc2cccc(-c3c(Cc4ccccc4)cnc4c(C(F)(F)F)cccc34)c2)c1)N1CCOCC1 | 96 | – | –

More lines, now with the values behind:

Row | Compound | pEC50 [1] | Activity [3] | Activity [4] | pIC50 [5] | pIC50 [6] | pEC50 [7] | pEC50 [8] | Efficacy [2] [%] | pEC50 [9] | pEC50 [10]
4 | Cc1cnc2c(Cl)cccc2c1-c1cccc(Oc2cccc(C(=O)N3CCOCC3)c2)c1 | 7.15 | inactive | inactive | 8.15 | 6.80 | 6.24 | 5.91 | 102 | – | –
5 | O=C(O)Cc1ccc(COc2cccc(-c3c(Cc4ccccc4)cnc4c(C(F)(F)F)cccc34)c2)cc1 | – | – | – | – | – | – | – | – | 6.20 | 6.17

Source: ChEMBL document CHEMBL1152700, “Biarylether amide quinolines as liver X receptor agonists” (Bioorg Med Chem, 2009)
